Assay results published in patent US20240374626A1, “METHODS OF ENHANCING MILK PRODUCTION IN LACTATING MAMMALIAN SUBJECTS” (priority 2023, published 2024).

Tests used:
Type in all cases: cell-based, mouse
[1] = system: HC11 cells; experiment: FACS DNA content analysis of HC11 cells during lactogenic differentiation
Description: (§1) The HC11 cell line was obtained from American Type Culture Collection (ATCC) and routinely checked for mycoplasma (Mycoplasma PCR kit, ABM, G238). Undifferentiated HC11 cells were cultured in growing medium (RPMI-1640; Thermo Fisher Scientific, 72400047), supplemented with 10% FBS, 5 μg/ml insulin (Millipore-Sigma, 16634), 10 ng/ml epidermal growth factor (EGF; Preprotech, AF-100-15) and 1× AntiAnti (Thermo Fisher Scientific, 15240112) at 37° C. with 5% CO2. Cells were grown to confluency and maintained in growing medium for 2 days, until they became competent. Competent HC11 cells were primed for differentiation by culturing them in priming medium [RPMI-1640 supplemented with 5 μg/ml insulin, 1 μM dexamethasone (Millipore-Sigma, D4902-1 G) and 1× Anti-Anti] for 24 h at 37° C. with 5% CO2. To induce differentiation, primed HC11 cells were cultured in DIP Medium [RPMI-1640, supplemented with 10% FBS, 5 μg/ml insulin, 1 μM dexamethasone, 1× anti-anti and 3 μg/ml Prolactin (NHPP, oPRL-21)] at 37° C. with 5% CO2.
(§2) […] Drugs were maintained through the differentiation process and added with every change of media.
For DNA content analysis of the mammary gland CK8^+ epithelial population, mammary gland cells suspension was obtained as described above. Cells were fixed in ice-cold 70% EtOH at a final concentration of 10^6 cells/ml. During fixation, cells were vigorously vortexed for 1 min to avoid the formation of cell aggregates. Cells were washed twice with washing buffer [1×PBS containing 5% FBS and 0.5% tween 20 (Fisher Chemical, BP337500)] and centrifuged at 2,000 rpm for 5 min at 4° C. Cell pellet was incubated for 1 h at room temperature with anti-CK8 (Developmental Studies Hybridoma Lab, TROMA-1), anti-GFP (Thermo Fisher, A01704) or corresponding rat (Thermo-Fisher, 10700) or rabbit (Thermo-Fisher, 10500C) IgG isotype controls. Cells were washed twice and incubated for 1 h at room temperature in darkness with FITC anti-Rat (Thermo Fisher, A24544) or FITC anti-Rabbit (Thermo Fisher, A16030) and APC anti-Rat (Jackson ImmunoResearch, 712-136-153). Cells were washed twice and resuspended in propidium iodide solution [1×PBS containing 25 μg/ml of propidium iodide (Thermo Fisher, P3566) and 100 μg/ml of RNAse (Thermo Fisher, 12091021)]. For DNA content analysis on HC11, cells were washed with 1×DPBS (GIBCO, 14190-250) and harvested using 0.05% Trypsin-EDTA (GIBCO, 25300-062). Cell suspension was washed with 1×DPBS and centrifuged at 1,000 rpm for 5 min at 4° C. Cell pellet was fixed in ice-cold 70% EtOH and then vortexed vigorously to avoid cell aggregates. After fixation, cells were washed with washing buffer [1×PBS (GIBCO, 14190136) supplemented with 5% FBS] and centrifuged at 2,000 rpm for 5 min at 4° C. The pellet was resuspended in propidium iodide solution. Cell suspensions were filtered through a 70 μm cell strainer (Falcon, 08-771-2) and analyzed using a BD LSRII cytometer or a BD FACS Aria II Cell Sorter. Populations were analyzed using FlowJo.

[2] = system: HC11 cells; experiment: Visualization of FACS-purified HC11 subpopulations sorted on DNA content (nuclei number); conditions: sorted on DNA content 4C or >4C
Description: as §2
Mammary gland CK8+ epithelial cells or HC11 were sorted based on DNA content using BD FACS Aria II Cell Sorter. After sorting, cells were stained in suspension using Phalloidin-iFluor 488 Reagent (Abcam, ab176753) for 30 min at room temperature in darkness. Cells were spined down onto microscopy slides (Fisher, 12-550-15) using Cytospin 2 (Shandon, 599X52) at 500 rpm for 3 min. Cells were mounted using fluoromount-G (Southern Biotech, 0100-01) and visualized using Zeiss Axio Imager Microscope.

[3] = system: HC11 cells; experiment: Milk production markers in differentiated HC11 (milk domes, Csn2 RT-qPCR, CSN2 WB, PLIN2 ICC)
Description: as §1, §2
Whole cell lysates were prepared using 1×NP40 lysis buffer (Thermo Fisher Scientific, FNN0021) supplemented with Pierce Protease and Phosphatase inhibitors (Thermo Fisher Scientific, A32959). Cells were washed with ice-cold PBS (GIBCO, 14190136) and lysed direct in buffer and kept at 4° C. rocking at 70 rpm for 30 min. Lysed cells were collected and centrifuged at 12,000 rpm at 4° C. for 15 min. Protein concentration was quantified using Qubit 4 fluorometer (Thermo Fisher, Q33238). Samples were resolved by SDS page and transferred to polyvinylidene difluoride (PVDF, Millipore-Sigma, IPVH00010) for 60 min at 250 mA. Immunoblots were blocked for 1 h at room temperature using either 5% non-fat milk or 5% BSA TBST. Primary antibodies [anti-GAPDH (SCBT, sc-365062), anti-Actin (SCBT, sc-47778), anti-Cyclin B1 (SCBT, sc-245), anti-Cyclin E1 (Millipore-Sigma, SAB4503516) and anti-CSN2 (ABclonal, A12749)] were incubated overnight at 4° C. in a rocker. HRP-conjugated secondary antibodies ([…]) were used for 1 h at room temperature. Immunoblots were developed using Clarity ECL (Bio-Rad), detected using a Bio-Rad ChemiDoc MP Image, and quantified using ImageJ.
HC11 cells were fixed using ice-cold MeOH for 10 min. After washing with 1×PBS, cells were incubated for 1 h at room temperature with primary antibodies [anti-γH2AX (SCBT, sc-517348), anti-pATR (Genetex, GTX128145), anti-PLIN2 (generously provided by Jim McManaman)] in a humid incubation chamber. After incubation, cells were washed three times using 1×PBS and incubated for 1 h at room temperature in darkness using corresponding Alexa Fluor AffiniPure secondary antibodies (Jackson ImmunoResearch) and Phalloidin-iFluor 488 Reagent (Abcam, ab176753) when indicated. Cells were washed three times using 1×PBS and incubated with Hoechst 33342 (AnaSpec, AS-83218) for 10 min. Cells were mounted using fluoromount-G (Southern Biotech, 0100-01) and visualized using Zeiss Axio Imager Microscope. Integrated density of PLIN2, nuclear γH2AX and nuclear pATR was quantify using ImageJ.
For RNA isolation from FACS purified populations, mammary gland cell suspensions were blocked using Mouse BD Fc Block™ (BD Biosciences) for 10 min. Cells were subsequently resuspended on 1×PBS at a density of 10^7 cells/ml and stained with the following antibodies for 30 min on ice: anti-CD24 PE (Stem Cell Technologies, 60099PE.1), anti-CD29 PE-Cy7 (BioLegend, 102222), anti-CD45-APC (BioLegend,105826), Ter119-APC (BD Biosciences, 561033), CD31-ACP (BD Biosciences, 551262). Propidium iodide at a final concentration of 0.5 μg/ml was used for the discrimination of dead cells. Stromal, basal and luminal mammary populations were sorted using a BD FACS Aria II Cell Sorter. […]

[4] = blebbistatin 30 uM, differentiated HC11
[5] = Ro-3306 5 μM, differentiated HC11 (DIP3)

| SMILES | endoreplication / polyploidy (FACS DNA content) ([1]; blebbistatin 30 uM, differentiation day 3 (DIP3)) | mitotic arrest / proportion of tetraploid cells (FACS DNA content) ([1]; undifferentiated HC11 at 80% confluence, blebbistatin 30 uM, 6 hours post-treatment) | nuclei number of cells generated (mono-, bi-, multinucleated) ([2]; blebbistatin, differentiated HC11 (DIP3)) | expression of Periplin-2 (PLIN2), ICC [3, 4] | expression of β-Casein (Csn2), RT-qPCR [3, 4] | formation of milk-containing domes [3, 4] | endoreplication / polyploidy (FACS DNA content) ([1]; Ro-3306 5 μM, DIP3) | mitotic arrest / accumulation of tetraploid cells (FACS DNA content) ([1]; undifferentiated HC11 at 80% confluence, Ro-3306 5 μM, 6 hours after treatment) | nuclei number of polyploid cells generated (mono-, bi-, multinucleated) ([2]; Ro-3306, differentiated HC11 (DIP3)) | CSN2 expression, RT-qPCR [3, 5] | CSN2 expression, WB [3, 5] |
| --- | --- | --- | --- | --- | --- | --- | --- | --- | --- | --- | --- |
| Cc1ccc2c(c1)C(=O)C1(O)CCN(c3ccccc3)C1=N2 (centres unmarked) [blebbistatin] | undergo further endoreplication, becoming polyploid | efficiently induces mitotic arrest in HC11 cells, increasing the proportion of tetraploid cells | predominantly generates bi- and multinucleated cells | increased expression | increased expression | increase in the formation of milk-containing domes | – | – | – | – | – |
| O=C1NC(=NCc2cccs2)S/C1=C\c1ccc2ncccc2c1 [Ro-3306] | – | – | – | – | – | – | undergo further endoreplication, becoming polyploid | efficiently induces mitotic arrest, as detected by the accumulation of tetraploid cells | generates mono-, bi- and multinucleated polyploid cells | increases | increases |
